Test results published in patent US20220168295A1, “RIMEGEPANT FOR CGRP RELATED DISORDERS” (Biohaven Pharmaceutical Ireland DAC, priority 2018, published 2022).

Tested on: subjects with Acute Migraines
Assay: Study 303 (BHV3000-303) Phase 3 placebo-controlled trial, rimegepant 75 mg ODT, acute treatment of migraine: efficacy and safety
Format: in vivo, human
Description: Clinical Trial—BHV3000-303: Phase 3: Double-Blind, Randomized, Placebo-Controlled, Safety and Efficacy Trial of BHV-3000 (Rimegepant) Orally Discintegrating Tablet (ODT) for the Acute Treatment of Migraine (ClinicalTrials.gov Identifier: NCT03461757) A phase 3 clinical study was conducted with 1812 participants, as follows. […] Pain freedom of rimegepant compared with placebo in the acute treatment of migraine will be measured using the number of evaluable subjects that report no pain at 2 hours post-dose. […] Pain will be measured on a 4 point Likert scale (0=none, 1=mild, 2=moderate, 3=severe) 2. Freedom from the most bothersome symptom (MBS) of rimegepant compared with placebo will be measured using the number of evaluable subjects that report the absence of their MBS at 2 hours post-dose. […] The MBS (nausea, phonophobia or photophobia) will measured using a binary scale (0=absent, 1=present). […] Pain Relief as measured by a 4 point numeric rating scale (None, Mild, Moderate, Severe) 2. […] Sustained Pain Relief as measured by a 4 point numeric rating scale (None, Mild, Moderate, Severe) 4. […] To measure rimegepant compared to placebo on the probability of requiring rescue medication will be assessed using the number of subjects that take rescue medication within […] administration of study medication (BHV3000 or placebo). […]

SMILES: N[C@@H]1c2cccnc2[C@H](OC(=O)N2CCC(n3c(=O)[nH]c4ncccc43)CC2)CC[C@H]1c1cccc(F)c1F [Rimegepant, [(5S,6S,9R)-5-amino-6-(2,3-difluorophenyl)-6,7,8,9-tetrahydro-5H-cyclohepta[b]pyridin-9-yl] 4-(2-oxo-3H-imidazo[4,5-b]pyridin-1-yl)piperidine-1-carboxylate]
- Patients with LFTs >3xULN: one
